Experiments:
[1] = Oral bioavailability in rat at 20 umol/kg; type: ADME, organism-based; conditions: in vivo, at 20 µmol/kg
[2] = Drug excretion in dog urine; type: ADME, Canis lupus familiaris; conditions: read-out: Drug excretion
[3] = Metabolic stability in human liver microsomes; type: ADME; conditions: read-out: Stability
[4] = Total clearance in dog at 3 umol/kg, iv and 6 umol/kg, po; type: ADME, organism-based, Canis lupus familiaris; conditions: in vivo
[5] = Renal clearance in rat at 5 umol/kg, iv and 20 umol/kg, po; type: ADME, organism-based, Kidney; conditions: in vivo
[6] = Oral bioavailability in dog at 6 umol/kg; type: ADME, organism-based, Canis lupus familiaris; conditions: in vivo, at 6 µmol/kg
[7] = Total clearance in rat at 5 umol/kg, iv and 20 umol/kg, po; type: ADME, organism-based; conditions: in vivo
[8] = Drug excretion in rat urine; type: ADME; conditions: in vivo
[9] = test system: Hepatocyte; assay: Metabolic stability in human hepatocytes measured per 10^6 cells; type: ADME, cell-based
[10] = Renal clearance in dog at 3 umol/kg, iv and 6 umol/kg, po; type: ADME, organism-based, Canis lupus familiaris, Kidney; conditions: in vivo
[11] = Drug metabolism in human hepatocytes assessed as glucuronidation on isoxazolone ring; type: ADME, cell-based, Hepatocyte
[12] = Dissociation constant, pKa of the compound; type: physicochemical

bioavailability [1] | dose excreted [2] | microsomal CLint [3] | clearance [4] | CL renal [5] | bioavailability [6] | clearance [7] | Drug excretion [8] | Stability [9] | CL renal [10] | Drug metabolism [11] | pKa [12] | Structure (SMILES)
39% | 70% | < 5 µL/min/mg | 1.1 mL/min/kg | 6 mL/min/kg | 53% | 13 mL/min/kg | 45 %ID | < 1 µL/min | 0.8 mL/min/kg | metabolite_detected | – | CC(C)(C)C[C@H]1C[C@@H](c2cc(=O)[nH]o2)CCN1
33% | 7% | < 5 µL/min/mg | 2.9 mL/min/kg | 11 mL/min/kg | 73% | 46 mL/min/kg | 25 %ID | < 1 µL/min | 0.2 mL/min/kg | metabolite_detected | – | O=c1cc([C@H]2CCN[C@@H](Cc3ccccc3)C2)o[nH]1
19% | – | < 5 µL/min/mg | 1.8 mL/min/kg | 6 mL/min/kg | 59% | 24 mL/min/kg | 25 %ID | < 1 µL/min | 0.12 mL/min/kg | metabolite_detected | – | O=c1cc([C@H]2CCN[C@@H](CCc3ccccc3)C2)o[nH]1
– | – | – | – | – | – | – | – | – | – | – | 4.4 | O=c1cc([C@@H]2CCN[C@H](Cc3ccccc3)C2)o[nH]1
– | – | – | – | – | – | – | – | – | – | – | 4.9 | O=c1cc([C@H]2CCN[C@H](Cc3ccccc3)C2)o[nH]1

— ChEMBL document CHEMBL3286179, “Discovery of the Fibrinolysis Inhibitor AZD6564, Acting via Interference of a Protein-Protein Interaction” (ACS Med Chem Lett, 2014)
